Counter-ions that a name gives are not always drawn.
target: T1, recombinant JAK2 (Homo sapiens, UniProt O60674); test: IC50 value determinations for Jak2 kinase, luminescence-based kinase assay (Kinase-Glo); assay type: biochemical; settings: Table 1
T1 construct: purchased Upstate Cell Signaling Solutions
T1 sequence (O60674 808-1132 limits assumed): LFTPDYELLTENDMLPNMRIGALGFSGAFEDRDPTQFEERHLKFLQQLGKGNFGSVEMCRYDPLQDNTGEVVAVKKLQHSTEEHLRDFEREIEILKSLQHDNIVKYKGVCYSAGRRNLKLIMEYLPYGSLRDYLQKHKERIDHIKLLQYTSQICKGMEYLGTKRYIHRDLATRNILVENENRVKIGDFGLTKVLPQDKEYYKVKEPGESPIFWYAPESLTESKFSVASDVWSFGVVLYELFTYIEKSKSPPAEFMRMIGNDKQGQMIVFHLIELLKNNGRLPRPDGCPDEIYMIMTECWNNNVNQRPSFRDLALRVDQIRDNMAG

IC50 [nM]	SMILES
20.9	Cc1cnc(Nc2ccc(C3CCNCC3)cc2)nc1Nc1cccc(C(C)(C)C)c1 [N4-(3-tert-butylphenyl)-5-methyl-N2-(4-(piperidin-4-yl)phenyl)pyrimidine-2,4-diamine Hydrochloride]
2.73	Cc1cnc(Nc2ccc(OC3CCNCC3)cc2)nc1Nc1cccc(C(C)(C)C)c1 [N4-(3-tert-butylphenyl)-5-methyl-N2-(4-(piperidin-4-yloxy)phenyl)pyrimidine-2,4-diamine Hydrochloride]
40.1	Cc1cnc(Nc2ccc(OCCN3CCCC3)cc2)nc1Nc1ccc(Cl)c(F)c1 [N4-(4-Chloro-3-fluoro-phenyl)-5-methyl-N2-[4-(2-pyrrolidin-1-yl-ethoxy)-phenyl]-pyrimidine-2,4-diamine]
9.52	COc1cc(Nc2nc(Nc3cccc(N4CCNCC4)c3)ncc2C)ccc1Cl [N4-(4-Chloro-3-methoxy-phenyl)-5-methyl-N2-(3-piperazin-1-yl-phenyl)-pyrimidine-2,4-diamine]
15.8	COc1cc(Nc2nc(Nc3cccc(CN4CCNCC4)c3)ncc2C)ccc1Cl [N4-(4-Chloro-3-methoxy-phenyl)-5-methyl-N2-(3-piperazin-1-ylmethyl-phenyl)-pyrimidine-2,4-diamine]
130	COc1cc(Nc2nc(Nc3ccc(N4CCOCC4)cc3)ncc2C)ccc1Cl [N4-(4-Chloro-3-methoxy-phenyl)-5-methyl-N2-(4-morpholin-4-yl-phenyl)-pyrimidine-2,4-diamine]
13.3	COc1cc(Nc2nc(Nc3ccc(CN4CCOCC4)cc3)ncc2C)ccc1Cl [N4-(4-Chloro-3-methoxy-phenyl)-5-methyl-N2-(4-morpholin-4-ylmethyl-phenyl)-pyrimidine-2,4-diamine trifluoroacetate]
15.2	COc1cc(Nc2nc(Nc3ccc(CN4CCNCC4)cc3)ncc2C)ccc1Cl [N4-(4-Chloro-3-methoxy-phenyl)-5-methyl-N2-(4-piperazin-1-ylmethyl-phenyl)-pyrimidine-2,4-diamine]
35.3	COc1cc(Nc2nc(Nc3ccc(N4CCCCC4)cc3)ncc2C)ccc1Cl [N4-(4-Chloro-3-methoxy-phenyl)-5-methyl-N2-(4-piperidin-1-yl-phenyl)-pyrimidine-2,4-diamine]
35.3	COc1cc(Nc2nc(Nc3ccc(-n4cccn4)cc3)ncc2C)ccc1Cl [N4-(4-Chloro-3-methoxy-phenyl)-5-methyl-N2-(4-pyrazol-1-yl-phenyl)-pyrimidine-2,4-diamine trifluoroacetate]
18.9	COc1cc(Nc2nc(Nc3ccc(Cn4cccn4)cc3)ncc2C)ccc1Cl [N4-(4-Chloro-3-methoxy-phenyl)-5-methyl-N2-(4-pyrazol-1-ylmethyl-phenyl)-pyrimidine-2,4-diamine]
12.1	COc1cc(Nc2nc(Nc3ccc(N4CCNCC4)nc3)ncc2C)ccc1Cl [N4-(4-Chloro-3-methoxy-phenyl)-5-methyl-N2-(6-piperazin-1-yl-pyridin-3-yl)-pyrimidine-2,4-diamine]
5.5	COc1cc(Nc2nc(Nc3ccc(N4CCN(C)CC4)cc3)ncc2C)ccc1Cl [N4-(4-Chloro-3-methoxy-phenyl)-5-methyl-N2-[4-(4-methyl-piperazin-1-yl)-phenyl]-pyrimidine-2,4-diamine]
12	COc1cc(Nc2nc(Nc3ccc(CN4CCN(C)CC4)cc3)ncc2C)ccc1Cl [N4-(4-Chloro-3-methoxy-phenyl)-5-methyl-N2-[4-(4-methyl-piperazin-1-ylmethyl)-phenyl]-pyrimidine-2,4-diamine]
13	COc1cc(Nc2nc(Nc3ccc(S(=O)(=O)C4CCNCC4)cc3)ncc2C)ccc1Cl [N4-(4-Chloro-3-methoxy-phenyl)-5-methyl-N2-[4-(piperidine-4-sulfonyl)-phenyl]-pyrimidine-2,4-diamine]
8.41	Cc1cc(Nc2nc(Nc3ccc(OC4CCNCC4)cc3)ncc2C)ccc1Cl [N4-(4-Chloro-3-methyl-phenyl)-5-methyl-N2-[4-(piperidin-4-yloxy)-phenyl]-pyrimidine-2,4-diamine]
11.4	Cc1cnc(Nc2ccc(OC3CCNCC3)cc2)nc1Nc1ccc(Cl)c(C(F)(F)F)c1 [N4-(4-Chloro-3-trifluoromethyl-phenyl)-5-methyl-N2-[4-(piperidin-4-yloxy)-phenyl]-pyrimidine-2,4-diamine]
18.2	Cc1cnc(Nc2ccc(OCCN3CCCC3)cc2)nc1Nc1ccc(Cl)cc1 [N4-(4-Chloro-phenyl)-5-methyl-N2-[4-(2-pyrrolidin-1-yl-ethoxy)-phenyl]-pyrimidine-2,4-diamine trifluoroacetate]
14.8	COc1cc(Nc2nc(Nc3ccc(OCCN4CCCC4)cc3)ncc2C)ccc1F [N4-(4-Fluoro-3-methoxy-phenyl)-5-methyl-N2-[4-(2-pyrrolidin-1-yl-ethoxy)-phenyl]-pyrimidine-2,4-diamine]
4330	COc1ccc(Nc2ccnc(Nc3ccc(OCCN4CCCC4)cc3)n2)cc1 [N4-(4-Methoxy-phenyl)-N2-[4-(2-pyrrolidin-1-yl-ethoxy)-phenyl]-pyrimidine-2,4-diamine trifluoroacetate]

IC50 [nM]	SMILES
694	Cc1cnc(Nc2ccc(CN3CCNCC3)cc2)nc1Nc1ccc(Cl)c2[nH]ccc12 [N4-(7-chloro-1H-indol-4-yl)-5-methyl-N2-(4-((piperazin-1-yl)methyl)phenyl)pyrimidine-2,4-diamine Hydrochloride]
14.2	Cc1cnc(Nc2ccc(N3CCN(C)CC3)cc2)nc1Nc1cccc2c1OCO2 [N4-Benzo[1,3]dioxol-4-yl-5-methyl-N2-[4-(4-methyl-piperazin-1-yl)-phenyl]-pyrimidine-2,4-diamine]
9.34	COc1cc(Nc2ncc(C)c(Nc3cccc4c3OCO4)n2)ccc1OCCN1CCCC1 [N4-Benzo[1,3]dioxol-4-yl-N2-[3-methoxy-4-(2-pyrrolidin-1-yl-ethoxy)-phenyl]-5-methyl-pyrimidine-2,4-diamine]
87.2	Cc1cnc(Nc2ccc(OCCN3CCCC3)cc2)nc1Nc1ccc2c(c1)OCO2 [N4-Benzo[1,3]dioxol-5-yl-5-methyl-N2-[4-(2-pyrrolidin-1-yl-ethoxy)-phenyl]-pyrimidine-2,4-diamine trifluoroacetate]
12.4	Cc1cnc(Nc2ccc(OCCN3CCCC3)cc2)nc1Nc1csc2ccccc12 [N4-Benzo[b]thiophen-3-yl-5-methyl-N2-[4-(2-pyrrolidin-1-yl-ethoxy)-phenyl]-pyrimidine-2,4-diamine]
28.5	Cc1cnc(Nc2ccc(OCCN3CCCC3)cc2)nc1Nc1ccc2sccc2c1 [N4-Benzo[b]thiophen-5-yl-5-methyl-N2-[4-(2-pyrrolidin-1-yl-ethoxy)-phenyl]-pyrimidine-2,4-diamine]
18.8	Cc1cnc(Nc2ccc(N3CCN(C)CC3)cc2)nc1Nc1cccc(S(=O)(=O)N2C(C)CCC2C)c1 (stereo not drawn) [N4-[3-(2,5-Dimethyl-pyrrolidine-1-sulfonyl)-phenyl]-5-methyl-N2-[4-(4-methyl-piperazin-1-yl)-phenyl]-pyrimidine-2,4-diamine Hydrochloride]
60.3	CCN(CC)S(=O)(=O)c1cccc(Nc2nc(Nc3ccc(N4CCN(C)CC4)cc3)ncc2C)c1 [N,N-Diethyl-3-{5-methyl-2-(4-(4-methyl-piperazin-1-yl)-phenylamino]-pyrimidin-4-ylamino}-benzenesulfonamide]
9.5	Cc1cnc(Nc2ccc(N3CCN(C)CC3)cc2)nc1Nc1cccc(S(=O)(=O)N(C)C)c1 [N,N-Dimethyl-3-{5-methyl-2-[4-(4-methyl-piperazin-1-yl)-phenylamino]-pyrimidin-4-ylamino}-benzenesulfonamide]
146	CC(=O)Nc1cccc(Nc2nc(Nc3ccc(OC4CCNCC4)cc3)ncc2C)c1C [N-(2-Methyl-3-(5-methyl-2-[4-(piperidin-4-yloxy)-phenylamino]-pyrimidin-4-ylamino}-phenyl)-acetamide]
137	CC(=O)Nc1cccc(Nc2nc(Nc3ccc(OC4CCNCC4)cc3)ncc2C)c1 [N-(3-{5-Methyl-2-[4-(piperidin-4-yloxy)-phenylamino]-pyrimidin-4-ylamino}-phenyl)-acetamide]
702	c1ccc(Cc2ccnc(Nc3ccc(OCCN4CCCC4)cc3)n2)cc1 [N-(4-(2-(pyrrolidin-1-yl)ethoxy)phenyl)-4-benzylpyrimidin-2-amine]
39.4	Cc1cnc(Nc2ccc(N3CCN(C)CC3)cc2)nc1Nc1cccc(S(=O)(=O)NC2CCCCC2)c1 [N-Cyclohexyl-3-{5-methyl-2-[4-(4-methyl-piperazin-1-yl)-phenylamino)-pyrimidin-4-ylamino}-benzenesulfonamide]
19.8	Cc1cnc(Nc2ccc(N3CCN(C)CC3)cc2)nc1Nc1cccc(S(=O)(=O)NC2CCCC2)c1 [N-Cyclopentyl3-{5-Methyl-2-[4-(4-methyl-piperazin-1-yl)-phenylamino]-pyrimidine-4-ylamino}-benzenesulfonamide Hydrochloride]
541	Cc1cnc(Nc2ccc(N3CCN(C)CC3)cc2)nc1Nc1cccc(C(=O)NC(C)C)c1 [N-Isopropyl-3-{5-methyl-2-[4-(4-methyl-piperazin-1-yl)-phenylamino]-pyrimidin-4-ylamino}-benzamide]
11.8	Cc1cnc(Nc2ccc(N3CCN(C)CC3)cc2)nc1Nc1cccc(S(=O)(=O)NC(C)C)c1 [N-Isopropyl-3-{5-methyl-2-[4-(4-methyl-piperazin-1-yl)-phenylamino]-pyrimidin-4-ylamino}-benzenesulfonamide]
257	CNC(=O)c1cccc(Nc2nc(Nc3ccc(OCCN4CCCC4)cc3)ncc2C)c1 [N-Methyl-3-{5-methyl-2-[4-(2-pyrrolidin-1-yl-ethoxy)-phenylamino]-pyrimidin-4-ylamino}-benzamide]
16.1	CNS(=O)(=O)c1cccc(Nc2nc(Nc3ccc(N4CCN(C)CC4)cc3)ncc2C)c1 [N-Methyl-3-{5-methyl-2-[4-(4-methyl-piperazin-1-yl)-phenylamino]-pyrimidin-4-ylamino}-benzenesulfonamide]
44.4	Cc1ccc(Nc2nc(Nc3ccc(OCCN4CCCC4)cc3)ncc2C)cc1S(=O)(=O)NC(C)(C)C [N-tert-Butyl-2-methyl-5-{5-methyl-2-[4-(2-pyrrolidin-1-yl-ethoxy)-phenylamino]-pyrimidin-4-ylamino}-benzenesulfonamide]
